# According to US20250101039A1, “RIFAMYCIN DERIVATIVES FOR THE TREATMENT OF DISEASES” (priority 2022, published 2025):
# Like-named read-outs stand apart in the source and are kept apart here.
# Assays:
# [1] = system: S. aureus; experiment: MIC by broth microdilution, S. aureus; format: cell-based, Staphylococcus aureus; details: Staphylococcus aureus, read-out: MIC S. aureus; cation adjusted Mueller Hinton broth, 35° C. 20 hours
# [2] = system: A. baumannii; experiment: MIC by broth microdilution, A. baumannii (WT); format: cell-based, Acinetobacter baumannii; details: Acinetobacter baumannii
# [3] = system: Enterococcus faecium (strain NCTC 12204); experiment: MIC by broth microdilution, E. faecium; format: cell-based; details: Enterococcus faecium, NCTC12204; strain NCTC 12204, cation adjusted Mueller Hinton broth; read-out: MIC E. faecium
# [4] = system: Enterococcus faecalis (strain ATCC 51575); experiment: MIC by broth microdilution, E. faecalis; format: cell-based; details: Enterococcus faecalis, ATCC51575; strain ATCC 51575, cation adjusted Mueller Hinton broth; read-out: MIC E. faecalis
# [5] = system: Staphylococcus epidermidis (strain ATCC 12228); experiment: MIC by broth microdilution, S. epidermidis; format: cell-based; details: Staphylococcus epidermidis, ATCC12228; strain ATCC 12228, cation adjusted Mueller Hinton broth; read-out: MIC S. epidermidis
# [6] = system: H. influenzae (strain ATCC 49247); experiment: MIC by broth microdilution, H. influenzae; format: cell-based, Hemophilus influenzae; details: Haemophilus influenzae, ATCC49247; strain ATCC 49247, Hemophilus test medium broth; read-out: MIC H. influenzae
# [7] = system: A. baumannii RpoB H535Q; experiment: microbe, parasite or virus in culture; format: cell-based, Acinetobacter baumannii; details: Acinetobacter baumannii, RPOBH535Q
# [8] = system: A. baumannii RpoB H535C; experiment: microbe, parasite or virus in culture; format: cell-based, Acinetobacter baumannii; details: Acinetobacter baumannii, RPOBH535C
# [9] = system: A. baumannii RpoB H535L; experiment: microbe, parasite or virus in culture; format: cell-based, Acinetobacter baumannii; details: Acinetobacter baumannii, RPOBH535L
# [10] = system: A. baumannii RpoB H535Q/S521T; experiment: microbe, parasite or virus in culture; format: cell-based, Acinetobacter baumannii; details: Acinetobacter baumannii, RPOBH535Q/S521T
# [11] = system: A. baumannii RpoB L542F; experiment: microbe, parasite or virus in culture; format: cell-based, Acinetobacter baumannii; details: Acinetobacter baumannii, RPOBL542F
# [12] = system: A. baumannii RpoB I581M; experiment: microbe, parasite or virus in culture; format: cell-based, Acinetobacter baumannii; details: Acinetobacter baumannii, RPOBI581M, read-out: MIC, RpoB mutation I581M
# [13] = system: A. baumannii RpoB S583L; experiment: microbe, parasite or virus in culture; format: cell-based, Acinetobacter baumannii; details: Acinetobacter baumannii, RPOBS583L, read-out: MIC, RpoB mutation S583L
# [14] = system: A. baumannii RpoB N527D; experiment: microbe, parasite or virus in culture; format: cell-based, Acinetobacter baumannii; details: Acinetobacter baumannii, RPOBN527D, read-out: MIC, RpoB mutation N527D
compound,measurement,setting,value
"CO[C@H]1/C=C/O[C@@]2(C)Oc3c(C)c(O)c4c(c3C2=O)C2=NC3(CCN(CC(C)C)CC3)NC2=C(NC(=O)/C(C)=C\C=C\[C@H](C)[C@H](O)[C@@H](C)[C@@H](O)[C@@H](C)[C@H](OC(C)=O)[C@@H]1C)C4=O [Rifabutin, reference compound]",MIC,[1],0.016 µg/mL
same,MIC,"[2]; 20 h, Table 4, RPMI + FCS, read-out: A. baumannii MIC, WT",≤ 0.002 µg/mL
same,MIC,"[2]; read-out: MIC A. baumannii, RPMI medium supplemented with 10% FCS, 35° C. 20 hours",< 0.002 µg/mL
same,MIC,[3],0.125 µg/mL
same,MIC,[4],4 µg/mL
same,MIC,[5],0.004 µg/mL
same,MIC,[6],0.5 µg/mL
same,MIC,"[7]; 20 h, read-out: A. baumannii MIC, RpoB H535Q, Table 4, RPMI + FCS",0.004 µg/mL
same,MIC,"[7]; 20 h, read-out: MIC, RpoB mutation H535Q, Table 5 part 1 c2, 1st H535Q isolate, RPMI + 10% FCS",0.03 µg/mL
same,MIC,"[7]; 20 h, read-out: MIC, RpoB mutation H535Q, Table 5 part 1 c3, 2nd H535Q isolate, RPMI + 10% FCS",> 32 µg/mL
same,MIC,"[7]; 20 h, read-out: MIC, RpoB mutation H535Q, Table 5 part 1 c4, 3rd H535Q isolate, RPMI + 10% FCS",16 µg/mL
same,MIC,"[8]; 20 h, read-out: A. baumannii MIC, RpoB H535C, Table 4, RPMI + FCS",0.03 µg/mL
same,MIC,"[8]; 20 h, read-out: MIC, RpoB mutation H535C, Table 5 part 2 c1, 1st H535C isolate, RPMI + 10% FCS",0.06 µg/mL
same,MIC,"[8]; 20 h, read-out: MIC, RpoB mutation H535C, Table 5 part 2 c2, 2nd H535C isolate, RPMI + 10% FCS",0.016 µg/mL
same,MIC,"[8]; 20 h, read-out: MIC, RpoB mutation H535C, Table 5 part 2 c3, 3rd H535C isolate, RPMI + 10% FCS",0.25 µg/mL
same,MIC,"[8]; 20 h, read-out: MIC, RpoB mutation H535C, Table 5 part 2 c4, 4th H535C isolate, RPMI + 10% FCS",> 32 µg/mL
same,MIC,"[9]; 20 h, read-out: A. baumannii MIC, RpoB H535L, Table 4, RPMI + FCS",> 32 µg/mL
same,MIC,"[9]; 20 h, read-out: MIC, RpoB mutation H535L, Table 5 part 2 c5, 1st H535L isolate, RPMI + 10% FCS",0.06 µg/mL
same,MIC,"[9]; 20 h, read-out: MIC, RpoB mutation H535L, Table 5 part 2 c6, 2nd H535L isolate, RPMI + 10% FCS",0.008 µg/mL
same,MIC,"[9]; 20 h, read-out: MIC, RpoB mutation H535L, Table 5 part 3 c1, 3rd H535L isolate, RPMI + 10% FCS",> 32 µg/mL
same,MIC,"[9]; 20 h, read-out: MIC, RpoB mutation H535L, Table 5 part 3 c6, 4th H535L isolate, RPMI + 10% FCS",> 32 µg/mL
same,MIC,"[9]; 20 h, read-out: MIC, RpoB mutation H535L, Table 5 part 3 c7, 5th H535L isolate, RPMI + 10% FCS",> 32 µg/mL
same,MIC,"[10]; read-out: MIC, RpoB mutation H535Q/S521T, Table 5 part 1 c5, 1st H535Q/S521T isolate, RPMI + 10% FCS",32 µg/mL
same,MIC,"[10]; read-out: MIC, RpoB mutation H535Q/S521T, Table 5 part 1 c6, 2nd H535Q/S521T isolate, RPMI + 10% FCS",16 µg/mL
same,MIC,"[11]; 20 h, read-out: MIC, RpoB mutation L542F, Table 5 part 3 c2, 1st L542F isolate, RPMI + 10% FCS",0.004 µg/mL
same,MIC,"[11]; 20 h, read-out: MIC, RpoB mutation L542F, Table 5 part 3 c3, 2nd L542F isolate, RPMI + 10% FCS",1 µg/mL
"CO[C@H]1/C=C/O[C@@]2(C)Oc3c(C)c(O)c4c(O)c(c(/C=N/N5CCN(C)CC5)c(O)c4c3C2=O)NC(=O)/C(C)=C\C=C\[C@H](C)[C@H](O)[C@@H](C)[C@@H](O)[C@@H](C)[C@H](OC(C)=O)[C@@H]1C [Rifampicin, reference compound]",MIC,"[2]; Table 4, cation-adjusted Mueller Hinton broth (rifampicin), read-out: A. baumannii MIC, WT",8 µg/mL
same,MIC,[3],500 µg/mL
same,MIC,[4],1000 µg/mL
same,MIC,[5],≤ 2 µg/mL
same,MIC,[6],250 µg/mL
same,MIC,"[7]; read-out: A. baumannii MIC, RpoB H535Q, Table 4, cation-adjusted Mueller Hinton broth (rifampicin)",> 32 µg/mL
same,MIC,"[7]; read-out: MIC, RpoB mutation H535Q, Table 5 part 1 c2, 1st H535Q isolate, cation-adjusted Mueller Hinton broth (rifampicin)",> 32 µg/mL
same,MIC,"[7]; read-out: MIC, RpoB mutation H535Q, Table 5 part 1 c3, 2nd H535Q isolate, cation-adjusted Mueller Hinton broth (rifampicin)",> 32 µg/mL
same,MIC,"[7]; read-out: MIC, RpoB mutation H535Q, Table 5 part 1 c4, 3rd H535Q isolate, cation-adjusted Mueller Hinton broth (rifampicin)",> 32 µg/mL
same,MIC,"[8]; read-out: A. baumannii MIC, RpoB H535C, Table 4, cation-adjusted Mueller Hinton broth (rifampicin)",> 32 µg/mL
same,MIC,"[8]; read-out: MIC, RpoB mutation H535C, Table 5 part 2 c2, 2nd H535C isolate, cation-adjusted Mueller Hinton broth (rifampicin)",> 32 µg/mL
same,MIC,"[8]; read-out: MIC, RpoB mutation H535C, Table 5 part 2 c3, 3rd H535C isolate, cation-adjusted Mueller Hinton broth (rifampicin)",> 32 µg/mL
same,MIC,"[8]; read-out: MIC, RpoB mutation H535C, Table 5 part 2 c4, 4th H535C isolate, cation-adjusted Mueller Hinton broth (rifampicin)",> 32 µg/mL
same,MIC,"[9]; read-out: A. baumannii MIC, RpoB H535L, Table 4, cation-adjusted Mueller Hinton broth (rifampicin)",> 32 µg/mL
same,MIC,"[9]; read-out: MIC, RpoB mutation H535L, Table 5 part 2 c5, 1st H535L isolate, cation-adjusted Mueller Hinton broth (rifampicin)",> 32 µg/mL
same,MIC,"[9]; read-out: MIC, RpoB mutation H535L, Table 5 part 2 c6, 2nd H535L isolate, cation-adjusted Mueller Hinton broth (rifampicin)",> 32 µg/mL
same,MIC,"[9]; read-out: MIC, RpoB mutation H535L, Table 5 part 3 c1, 3rd H535L isolate, cation-adjusted Mueller Hinton broth (rifampicin)",> 32 µg/mL
same,MIC,"[9]; read-out: MIC, RpoB mutation H535L, Table 5 part 3 c6, 4th H535L isolate, cation-adjusted Mueller Hinton broth (rifampicin)",> 32 µg/mL
same,MIC,"[9]; read-out: MIC, RpoB mutation H535L, Table 5 part 3 c7, 5th H535L isolate, cation-adjusted Mueller Hinton broth (rifampicin)",> 32 µg/mL
same,MIC,[12],> 32 µg/mL
same,MIC,"[11]; read-out: MIC, RpoB mutation L542F, Table 5 part 3 c2, 1st L542F isolate, cation-adjusted Mueller Hinton broth (rifampicin)",8 µg/mL
same,MIC,"[11]; read-out: MIC, RpoB mutation L542F, Table 5 part 3 c3, 2nd L542F isolate, cation-adjusted Mueller Hinton broth (rifampicin)",8 µg/mL
same,MIC,[13],> 32 µg/mL
same,MIC,[14],> 32 µg/mL
